Where two headings read alike, the source gives them in different places.

Data on 6 compounds can be found in publication PMC12563821 (International Journal of Molecular Sciences, 2025).

What all share (type): biochemical
One experiment concerns the target T1, Sirt2 (Homo sapiens, UniProt Q8IXJ6).
T1 construct: comprising amino acids 50–389 (C-terminal); His-tag (N); purchased Reaction Biology Corporation (Malvern, PA, USA), in-house enzyme of the contract laboratory; host or cells: E. coli
T1 sequence (Q8IXJ6 50-389): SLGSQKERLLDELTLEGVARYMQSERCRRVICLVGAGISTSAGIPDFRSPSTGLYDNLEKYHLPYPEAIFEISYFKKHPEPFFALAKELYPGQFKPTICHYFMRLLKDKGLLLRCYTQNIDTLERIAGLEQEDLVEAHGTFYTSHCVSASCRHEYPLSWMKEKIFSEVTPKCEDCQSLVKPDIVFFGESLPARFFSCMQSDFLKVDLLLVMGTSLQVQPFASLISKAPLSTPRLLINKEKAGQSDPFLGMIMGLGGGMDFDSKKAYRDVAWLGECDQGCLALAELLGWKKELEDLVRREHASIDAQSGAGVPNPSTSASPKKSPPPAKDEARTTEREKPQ
The experiment in a line: Fluorescence-based Sirt2 deacetylase inhibition assay (Reaction Biology). As to conditions: for IC50: fluorescence-based assay. How it is done: (§1) The determination of the inhibitory potency and corresponding subtype selectivity of the synthesized hybrid candidates was performed by Reaction Biology Cooperation (Malvern, PA, USA) using a fluorescence-based assay (Table 1).
Sirtuin assays. The biological activity of the test substances against the respective sirtuin enzymes was evaluated by means of a fluorescence-based assay performed by Reaction Biology Corporation (Malvern, PA, USA). The sirtuin enzymes used in the assays were all obtained from in-house sources at Reaction Biology Corporation (Malvern, PA, USA). […] Sirt2 is provided in a buffer containing 50 mM Tris/HCl (pH 7.5), 500 mM NaCl, 1 mM TCEP, and 10% glycerol (v/v). […] Sirt3 is supplied in 50 mM Tris/HCl (pH 7.5), 500 mM NaCl, and 10% glycerol (v/v). […] All proteins were provided in purified forms for use in the assays. […] After 2 h of incubation at 30 °C, the universal inhibitor nicotinamide was added in excess to completely stop the deacetylation reaction, followed by the addition of a protease-based developer to release 7-amino-4-methylcoumarin, resulting in characteristic fluorescence, which was measured after 1 h at 30 °C (excitation/emission = 360/460). A no-inhibitor control was implemented, serving as a reference for 100% enzyme activity. […] Three individual IC50 values per test compound were calculated from the corresponding three dilution series fluorescence data using sigmoidal curve fitting in Prism 8.0.2 (GraphPad Software, Boston, MA, USA), and these were averaged to determine the mean IC50 value along with the standard deviation. To assess the selectivity against Sirt1, Sirt3, and Sirt5, a 50 µM concentration of the test compound was tested in duplicate, and the inhibitory activity was expressed as the mean of the duplicates in percentage of enzyme activity, including standard deviation, relative to the no-inhibitor control (representative 100% enzyme activity).

The next experiment relates to T2, Sirt1.
T2 construct: includes amino acids 1–747 (C-terminal); His-tag (N); purchased Reaction Biology Corporation (Malvern, PA, USA), in-house enzyme of the contract laboratory; host or cells: E. coli
The experiment in a line: Fluorescence-based Sirt1 subtype selectivity assay (Reaction Biology). As to conditions: 50 µM inhibitor, duplicate, relative to no-inhibitor control. How it is done:
as §1
(§2) Sirtuin assays. The biological activity of the test substances against the respective sirtuin enzymes was evaluated by means of a fluorescence-based assay performed by Reaction Biology Corporation (Malvern, PA, USA). The sirtuin enzymes used in the assays were all obtained from in-house sources at Reaction Biology Corporation (Malvern, PA, USA). Sirt1, with accession number NM_012238, includes amino acids 1–747 (C-terminal) and is tagged with an N-terminal His-tag. Sirt1 was expressed in E. coli and purified to greater than 85% as confirmed by SDS-PAGE and is supplied as a solution in 50 mM Tris/HCl (pH 7.5), 100 mM NaCl, and 10% glycerol (v/v). Sirt2 (accession number NM_012237), comprising amino acids 50–389 (C-terminal), features an N-terminal His-tag and was expressed in E. coli and finally purified to over 90% by SDS-PAGE. Sirt2 is provided in a buffer containing 50 mM Tris/HCl (pH 7.5), 500 mM NaCl, 1 mM TCEP, and 10% glycerol (v/v). Sirt3, with accession number NM_012239.3, spans amino acids 101–399 and is tagged with an N-terminal GST and expressed in E. coli and purified to greater than 85% purity by SDS-PAGE. Sirt3 is supplied in 50 mM Tris/HCl (pH 7.5), 500 mM NaCl, and 10% glycerol (v/v). Sirt5 (accession number NM_012241), consisting of amino acids 37–310 (C-terminal) and tagged with an N-terminal His-tag, was expressed in E. coli, purified to greater than 95% purity by SDS-PAGE and delivered as a solution in 50 mM Tris/HCl (pH 7.5), 500 mM NaCl, 1 mM TCEP, and 10% glycerol (v/v). All proteins were provided in purified forms for use in the assays. The respective internal assay protocol is outlined in the following: After the test substances (dissolved in DMSO) were incubated with the desired sirtuin enzyme in assay buffer (Tris-HCl, pH = 8) for 10 min at 30 °C, a substrate mixture consisting of a 7-amino-4-methylcoumarin-linked fluorogenic peptide substrate (p53 residues 379–382) and the cofactor NAD^+ was added. After 2 h of incubation at 30 °C, the universal inhibitor nicotinamide was added in excess to completely stop the deacetylation reaction, followed by the addition of a protease-based developer to release 7-amino-4-methylcoumarin, resulting in characteristic fluorescence, which was measured after 1 h at 30 °C (excitation/emission = 360/460). A no-inhibitor control was implemented, serving as a reference for 100% enzyme activity. […] Three individual IC50 values per test compound were calculated from the corresponding three dilution series fluorescence data using sigmoidal curve fitting in Prism 8.0.2 (GraphPad Software, Boston, MA, USA), and these were averaged to determine the mean IC50 value along with the standard deviation. To assess the selectivity against Sirt1, Sirt3, and Sirt5, a 50 µM concentration of the test compound was tested in duplicate, and the inhibitory activity was expressed as the mean of the duplicates in percentage of enzyme activity, including standard deviation, relative to the no-inhibitor control (representative 100% enzyme activity).

The subject of another experiment is T3, Sirt3.
T3 construct: spans amino acids 101–399; GST (N); purchased Reaction Biology Corporation (Malvern, PA, USA), in-house enzyme of the contract laboratory; host or cells: E. coli
The experiment in a line: Fluorescence-based Sirt3 subtype selectivity assay (Reaction Biology). Conditions: 50 µM inhibitor, duplicate, relative to no-inhibitor control. How it is done:
as §1, §2

Where [1] appears, read: rounded values, read-out: IC50 Sirt2.
The mark [2] stands for this setting: mean ± SD of three dilution series, read-out: IC50 [µM] ± SD Sirt2.

Consider `Cc1cc(C)nc(SCC(=O)Nc2ncc(COc3cccc4ccccc34)s2)n1` [FM368, 2-((4,6-Dimethylpyrimidin-2-yl)thio)-N-(5-((naphthalen-1-yloxy)methyl)thiazol-2-yl)acetamide], for which the half-inhibitory concentration (IC50) at Sirt2 (setting [1]) stood at 6.5 µM; on Sirt2 (setting [2]), 6.51 ± 0.84 µM. For the same compound, the “Residual Enzyme Activity [%] ± SD Sirt1” value in the experiment with Sirt1 worked out at 88.5 ± 2.7%. The “Residual Enzyme Activity [%] ± SD Sirt3” value in the experiment on Sirt3 is recorded as 85.0 ± 0.5%.
Turning to `Cc1cc(C)nc(SCC(=O)Nc2ncc(COc3ccc(NC(=O)c4cnn(C)c4)cc3)s2)n1` [FM358, N-(4-((2-(2-((4,6-Dimethylpyrimidin-2-yl)thio)acetamido)thiazol-5-yl)methoxy)-phenyl)-1-methyl-1H-pyrazole-4-carboxamide], the 50% inhibitory concentration (IC50) on Sirt2 (setting [1]) is 0.066 µM; on Sirt2 (setting [2]), 0.0656 ± 0.0044 µM. The “stronger Sirt2 inhibition compared to lead compound Yang_24a (fold)” value on Sirt2 (ratio of Sirt2 IC50 values) was found to be 1.2. Also, the “Residual Enzyme Activity [%] ± SD Sirt1” value in the experiment on Sirt1 was determined as 71.9 ± 0.6%. The “Residual Enzyme Activity [%] ± SD Sirt3” value in the experiment with Sirt3 is reported as 62.5 ± 0.1%.
`Cc1cc(C)nc(SCC(=O)Nc2ncc(COc3ccc(NC(=O)c4cnn(C)c4)c(Br)c3)s2)n1` [RW-93, N-(2-Bromo-4-((2-(2-((4,6-dimethylpyrimidin-2-yl)thio)acetamido)thiazol-5-yl)-methoxy)phenyl)-1-methyl-1H-pyrazole-4-carboxamide]: the “selectivity towards related subtypes Sirt1, Sirt3 and Sirt5” value at Sirt2 (Sirt2 versus Sirt1, Sirt3, Sirt5) was “more than 3000 fold”. The half-inhibitory concentration (IC50) on Sirt2 (setting [1]) turned out to be 0.016 µM. In addition, the IC50 on Sirt2 (setting [2]) worked out at 0.0155 ± 0.0007 µM. Further, on Sirt2 (ratio of Sirt2 IC50 values), the “outperforms lead compound SirReal2 by a factor” value is 15, the “stronger Sirt2 inhibition compared to lead compound Yang_24a (fold)” value is recorded as 5 and the “times more potent than hybrid precursor FM358” value is given as “more than 4”. Also, the “Residual Enzyme Activity [%] ± SD Sirt1” value in the experiment with Sirt1 was 58.2 ± 0.2%. The “Residual Enzyme Activity [%] ± SD Sirt3” value with Sirt3 worked out at 62.3 ± 1.2%.
As for `Cc1cc(C)nc(SCC(=O)Nc2ncc(COc3ccccc3)s2)n1` [FM345, 2-((4,6-Dimethylpyrimidin-2-yl)thio)-N-(5-(phenoxymethyl)thiazol-2-yl)acetamide], the IC50 on Sirt2 (setting [1]) was determined as 5.3 µM; at Sirt2 (setting [2]), 5.29 ± 0.73 µM. For the same compound, the “Residual Enzyme Activity [%] ± SD Sirt1” value in the experiment on Sirt1 amounted to 95.6 ± 2.3%. Besides, in the experiment with Sirt3, the “Residual Enzyme Activity [%] ± SD Sirt3” value is given as 78.8 ± 0.8%.
For the compound `Cc1cc(C)nc(SCC(=O)Nc2ncc(COc3ccc(NC(=O)c4cnn(C)c4)c(I)c3)s2)n1` [RW-95, N-(4-((2-(2-((4,6-Dimethylpyrimidin-2-yl)thio)acetamido)thiazol-5-yl)methoxy)-2-iodophenyl)-1-methyl-1H-pyrazole-4-carboxamide], the results for the half-maximal inhibitory concentration (IC50) at Sirt2 (setting [1]) and at Sirt2 (setting [2]) were 0.049 µM and 0.0485 ± 0.0056 µM, respectively. The “Residual Enzyme Activity [%] ± SD Sirt1” value with Sirt1 was found to be 60.9 ± 0.7%. The “Residual Enzyme Activity [%] ± SD Sirt3” value in the experiment with Sirt3 came out at 64.2 ± 1.2%.
Take `Cc1cc(C)nc(SCC(=O)Nc2ncc(COc3ccc(NC(=O)c4cccs4)cc3)s2)n1` [FM352, N-(4-((2-(2-((4,6-Dimethylpyrimidin-2-yl)thio)acetamido)thiazol-5-yl)methoxy)phenyl)thiophene-2-carboxamide]: the concentration for half-maximal inhibition (IC50) on Sirt2 (setting [1]) is 0.094 µM; at Sirt2 (setting [2]), 0.0935 ± 0.0064 µM. In addition, the “Residual Enzyme Activity [%] ± SD Sirt1” value with Sirt1 came out at 101 ± 1%. Also, in the experiment on Sirt3, the “Residual Enzyme Activity [%] ± SD Sirt3” value was found to be 75.8 ± 5.3%.
